Patent EP0157637A2, “Heterocyclic compounds” (THE WELLCOME FOUNDATION LIMITED, priority 1984, dated 1985)
Read-outs that look alike come from different tables or passages of the source.

Assays:
Eimeria tenella = assay: in vivo anticoccidial activity against Eimeria tenella; details: Concentration 400 ppm, cleared/total
Description: The in vivo activity of two compounds of the present invention and a compound disclosed in US Patent No. 4189485 were determined against Eimeria tenella by the method disclosed in European Patent No. 0021293.

rats = assay: maximal electroshock test (MES), anticonvulsant activity in rats; format: in vivo; details: for ED50: Rattus norvegicus
Description: The anticonvulsant activity of certain compounds of the present invention was determined by a standard maximal electroshock test (MES); that described by L.A. Woodbury and V.D. Davenport, Arch. Int. Pharmacodyn., 1952, 92, 97.

LD50 in the rat = details: in vivo, po, approximate
[1] = ip, rats, i.p., read-out: MES ED50 (mg/kg) i.p.
[2] = po, rats, p.o., read-out: MES ED50 (mg/kg) p.o.

| SMILES | ED50 (rats; [1]) | ED50 (rats; [2]) | other results |
| --- | --- | --- | --- |
| CNc1ncnc2c1ncn2Cc1ccccc1F [Compound 1, 9-(2-Fluorobenzyl)-6-methylamino-9H-purine] | – | – | E.tenella cleared (Eimeria tenella): 2/5; ED50 (rats; ip, read-out: MES ED50 (mg/kg) i.p.): 1.7 ± 0.4 mg/kg; ED50 (rats; po, read-out: MES ED50 (mg/kg) p.o.): 2.5 ± 0.4 mg/kg; LD50 (LD50 in the rat): ~1000 mg/kg |
| CN(C)c1ncnc2c1ncn2Cc1ccccc1F [Compound 2, 6-dimethylamino-9-(2-fluorobenzyl)-9H-purine] | 8.8 ± 1.7 mg/kg | – | E.tenella cleared (Eimeria tenella): 0/5 |
| Fc1ccccc1Cn1cnc2c(NC3CC3)ncnc21 [Compound 3, 6-cyclopropylamino-9-(2-fluorobenzyl)-9H-purine] | 5 ± 0.4 mg/kg | 7.8 ± 0.8 mg/kg | – |
| CCNc1ncnc2c1ncn2Cc1ccccc1F [Compound 4, 6-ethylamino-9-(2-fluorobenzyl)-9H-purine] | 4.9 ± 0.5 mg/kg | – | – |
| CC(C)Nc1ncnc2c1ncn2Cc1ccccc1F [Compound 5, 9-(2-fluorobenzyl)-6-isopropylamino-9H-purine] | 5.8 ± 0.6 mg/kg | – | – |
| Fc1ccccc1Cn1cnc2c(NCC3CC3)ncnc21 [Compound 6, 6-cyclopropylmethylamino-9-(2-fluorobenzyl)-9H-purine] | 4.3 ± 0.9 mg/kg | 6.3 ± 1 mg/kg | – |
| CN(c1ncnc2c1ncn2Cc1ccccc1F)C1CC1 [Compound 7, 9-(2-fluorobenzyl)-6-(N-methylcyclopropylamino)-9H-purine] | 6.8 ± 0.8 mg/kg | – | – |
| CCN(C)c1ncnc2c1ncn2Cc1ccccc1F [Compound 8] | 2.9 ± 0.3 mg/kg | 6 ± 0.5 mg/kg | – |
| CCCNc1ncnc2c1ncn2Cc1ccccc1F [Compound 9, 9-(2-fluorobenzyl)-6-propylamino-9H-purine] | 5.1 ± 0.5 mg/kg | 4.6 ± 1 mg/kg | – |
| CCN(CC)c1ncnc2c1ncn2Cc1ccccc1F [Compound 10, 6-diethylamino-9-(2-fluorobenzyl)-9H-purine] | 4.2 ± 0.5 mg/kg | 5.9 ± 0.6 mg/kg | – |
| Fc1ccccc1Cn1cnc2c(NC3CCCC3)ncnc21 [Compound 11, 6-cyclopentylamino-9-(2-fluorobenzyl)-9H-purine] | 8 ± 1 mg/kg | – | – |
| Fc1cccc(F)c1Cn1cnc2c(NC3CC3)ncnc21 [Compound 12, 6-cyclopropylamino-9-(2,6-difluorobenzyl)-9H-purine] | 4 mg/kg | 12.5 mg/kg | – |
| CNc1ncnc2c1ncn2Cc1c(F)cccc1F [Compound 13] | 2 mg/kg | – | – |
| CN(C)c1ncnc2c1ncn2Cc1c(F)cccc1F [Compound 14, ^g-(2,6-difluorobenzyl)-6-dimethylamino-9H-purine] | 2.2 ± 0.2 mg/kg | 3.8 ± 0.6 mg/kg | – |
| CNc1ncnc2c1ncn2Cc1cc(F)ccc1F [Compound 15, 9-(2,5-Difluorobenzyl)-6-methylamino-9H-purine] | 4 ± 0.6 mg/kg | 7 ± 1 mg/kg | – |
| Nc1ncnc2c1ncn2Cc1ccccc1F [Compound 16, 6-Amino-9-(2-fluorobenzyl)-9H-purine] | 2.4 ± 0.6 mg/kg | 2.2 ± 0.4 mg/kg | – |
| Nc1ncnc2c1ncn2Cc1c(F)cccc1F [Compound 27, 6-amino-9-(2,6-difluorobenzyl)-9H-purine] | 9 mg/kg | – | – |
| Nc1ncnc2c1ncn2Cc1cc(F)ccc1F [Compound 28, 6-amino-9-(2,5-difluorobenzyl)-9H-purine] | 5 mg/kg | – | – |
| OCNc1ncnc2c1ncn2Cc1ccccc1F [Compound 29, 9-(2-Fluorobenzyl)-6-hydroxymethylamino-9H-purine] | 4 mg/kg | – | – |
| COCN(C)c1ncnc2c1ncn2Cc1ccccc1F [Compound 30, 9-(2-Fluorobenzyl)-6-(N-methoxymethyl-N-methylamino)-9H-purine] | 5 mg/kg | – | – |
| COCNc1ncnc2c1ncn2Cc1ccccc1F [Compound 31, 9-(2-Fluorobenzyl)-6-methoxymethylamino-9H-purine] | – | – | MES, % at 6.25mg/kg (rats; rats, 6.25mg/kg, printed in the i.p. column in place of an ED50): (17% at 6.25mg/kg) |
| O=C1NC(=O)C(c2ccccc2)(c2ccccc2)N1 [phenytoin (Dilantin), 5,5-diphenylhydantoin, reference compound] | 10 ± 2 mg/kg | 20 ± 3 mg/kg | – |
